{"source": "patent US10508104B2", "about": "“6-hydroxy-5-(phenyl/heteroarylsulfonyl)pyrimidin-4(1H)-one as APJ agonists” (Bristol-Myers Squibb Company, priority 2016, dated 2019)", "biological_target": "human APJ receptor (Homo sapiens (Human), UniProt P35414)", "sequence (P35414 whole entry)": "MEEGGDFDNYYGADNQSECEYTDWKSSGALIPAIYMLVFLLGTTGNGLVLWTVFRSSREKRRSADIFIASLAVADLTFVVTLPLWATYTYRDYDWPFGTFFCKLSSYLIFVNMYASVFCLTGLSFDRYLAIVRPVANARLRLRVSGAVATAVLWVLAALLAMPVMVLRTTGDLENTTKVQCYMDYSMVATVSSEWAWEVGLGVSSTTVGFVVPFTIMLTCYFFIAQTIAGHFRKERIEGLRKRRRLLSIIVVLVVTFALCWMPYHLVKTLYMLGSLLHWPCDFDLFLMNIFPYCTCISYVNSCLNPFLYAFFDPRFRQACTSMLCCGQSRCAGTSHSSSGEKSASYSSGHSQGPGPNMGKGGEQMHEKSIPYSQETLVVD", "assay": "Intracellular cAMP accumulation assay (APJ hcAMP, HTRF)", "assay_type": "cell-based", "details": "HEK293 cells stably expressing human APJ receptor; inhibition of forskolin-mediated cAMP production; read-out: Human APJ cAMP EC50 Potency range", "method_in_brief": "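HEK293 cells stably expressing human APJ, 5,000 per well, incubated 30 min at rt with compound, […] and 2 μM forskolin. cAMP measured by HTRF against a cAMP standard curve as inhibition of forskolin-driven production. EC50 from variable-slope sigmoidal fit.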", "data": [{"smiles": "CCCCc1nc(=O)c(S(=O)(=O)c2ccc(-c3ccc(F)nc3C)cc2)c(O)n1C(c1cccc(C#N)c1)C1CC1", "note": "(centres unmarked) [Example 461, 3-({2-butyl-5-[4-(6-fluoro-2-methylpyridin-3-yl)benzenesulfonyl]-6-hydroxy-4-oxo-1,4-dihydropyrimidin-1-yl}(cyclopropyl)methyl) benzonitrile]", "values": [{"measurement": "EC50", "result": "0.01 to 10", "unit": "nM"}]}, {"smiles": "CCCCc1nc(=O)c(S(=O)(=O)c2ccc(-c3ccncc3C)cc2)c(O)n1C(c1cccc(C#N)c1)C1CC1", "note": "(centres unmarked) [Example 462, 3-({2-butyl-6-hydroxy-5-[4-(3-methylpyridin-4-yl)benzenesulfonyl]-4-oxo-1,4-dihydropyrimidin-1-yl}(cyclopropyl)methyl) benzonitrile]", "values": [{"measurement": "EC50", "result": "0.01 to 10", "unit": "nM"}]}, {"smiles": "CCCCc1nc(=O)c(S(=O)(=O)c2ccc(-c3ccccc3C#N)cn2)c(O)n1[C@@H](CC)c1cccc(C#N)c1", "note": "[Example 463, 2-[6-({2-butyl-1-[(1S)-1-(3-cyanophenyl)propyl]-6-hydroxy-4-oxo-1,4-dihydropyrimidin-5-yl}sulfonyl)pyridin-3-yl]benzonitrile]", "values": [{"measurement": "EC50", "result": "0.01 to 10", "unit": "nM"}]}, {"smiles": "CCCCc1nc(=O)c(S(=O)(=O)c2ccc(-c3ccc(F)cc3C(N)=O)cn2)c(O)n1[C@@H](CC)c1cccc(C#N)c1", "note": "[Example 464, 2-[6-({2-butyl-1-[(1S)-1-(3-cyanophenyl)propyl]-6-hydroxy-4-oxo-1,4-dihydropyrimidin-5-yl)sulfonyl)pyridin-3-yl]-5-fluorobenzamide]", "values": [{"measurement": "EC50", "result": "0.01 to 10", "unit": "nM"}]}, {"smiles": "CCCCc1nc(=O)c(S(=O)(=O)c2ccc(-c3ccccc3C(N)=O)cc2)c(O)n1[C@@H](CC)c1cccc(C#N)c1", "note": "[Example 465, 4′-({2-butyl-1-[(1S)-1-(3-cyanophenyl)propyl]-6-hydroxy-4-oxo-1,4-dihydropyrimidin-5-yl}sulfonyl)-[1,1′-biphenyl]-2-carboxamide]", "values": [{"measurement": "EC50", "result": "0.01 to 10", "unit": "nM"}]}, {"smiles": "CCCCc1nc(=O)c(S(=O)(=O)c2ccc(-c3ccccc3C#N)cc2)c(O)n1[C@@H](CC)c1cccc(C#N)c1", "note": "[Example 466, 4′-({2-butyl-1-[(1S)-1-(3-cyanophenyl)propyl]-6-hydroxy-4-oxo-1,4-dihydropyrimidin-5-yl}sulfonyl)-[1,1′-biphenyl]-2-carbonitrile]", "values": [{"measurement": "EC50", "result": "0.01 to 10", "unit": "nM"}]}, {"smiles": "CCCCc1nc(=O)c(S(=O)(=O)c2ccc(-c3ccccc3C(N)=O)cn2)c(O)n1[C@@H](CC)c1cccc(C#N)c1", "note": "[Example 467, 2-[6-({2-butyl-1-[(1S)-1-(3-cyanophenyl)propyl]-6-hydroxy-4-oxo-1,4-dihydropyrimidin-5-yl}sulfonyl)pyridin-3-yl]benzamide]", "values": [{"measurement": "EC50", "result": "0.01 to 10", "unit": "nM"}]}, {"smiles": "CC[C@@H](c1cccc(C#N)c1)n1c(CC2CC2)nc(=O)c(S(=O)(=O)c2ccc(-c3ccccc3C(N)=O)cc2)c1O", "note": "[Example 468, 4′-({1-[(1S)-1-(3-cyanophenyl)propyl]-2-(cyclopropylmethyl)-6-hydroxy-4-oxo-1,4-dihydropyrimidin-5-yl}sulfonyl)-[1,1′-biphenyl]-2-carboxamide]", "values": [{"measurement": "EC50", "result": "0.01 to 10", "unit": "nM"}]}, {"smiles": "CC[C@@H](c1cccc(C#N)c1)n1c(CC2CC2)nc(=O)c(S(=O)(=O)c2ccc(-c3ccc(F)cc3C(N)=O)cc2)c1O", "note": "[Example 469, 4′-({1-[(1S)-1-(3-cyanophenyl)propyl]-2-(cyclopropylmethyl)-6-hydroxy-4-oxo-1,4-dihydropyrimidin-5-yl}sulfonyl)-4-fluoro-[1,1′-biphenyl]-2-carboxamide]", "values": [{"measurement": "EC50", "result": "0.01 to 10", "unit": "nM"}]}, {"smiles": "CC[C@@H](c1cccc(C#N)c1)n1c(CC2CC2)nc(=O)c(S(=O)(=O)c2ccc(-c3ccncc3C(N)=O)cc2)c1O", "note": "[Example 470, 4-[4-({1-[(1S)-1-(3-cyanophenyl)propyl]-2-(cyclopropylmethyl)-6-hydroxy-4-oxo-1,4-dihydropyrimidin-5-yl}sulfonyl)phenyl] pyridine-3-carboxamide]", "values": [{"measurement": "EC50", "result": "0.01 to 10", "unit": "nM"}]}, {"smiles": "CC[C@@H](c1cccc(C#N)c1)n1c(CC2CC2)nc(=O)c(S(=O)(=O)c2ccc(-c3cnccc3C#N)cc2)c1O", "note": "[Example 471, 3-[4-({1-[(1S)-1-(3-cyanophenyl)propyl]-2-(cyclopropylmethyl)-6-hydroxy-4-oxo-1,4-dihydropyrimidin-5-yl}sulfonyl)phenyl] pyridine-4-carbonitrile]", "values": [{"measurement": "EC50", "result": "0.01 to 10", "unit": "nM"}]}, {"smiles": "CC[C@@H](c1cccc(C#N)c1)n1c(CC2CC2)nc(=O)c(S(=O)(=O)c2ccc(-c3cnccc3C(N)=O)cc2)c1O", "note": "[Example 472, 3-[4-({1-[(1S)-1-(3-cyanophenyl)propyl]-2-(cyclopropylmethyl)-6-hydroxy-4-oxo-1,4-dihydropyrimidin-5-yl}sulfonyl)phenyl] pyridine-4-carboxamide]", "values": [{"measurement": "EC50", "result": "0.01 to 10", "unit": "nM"}]}, {"smiles": "CC[C@@H](c1cc(F)cc(C#N)c1)n1c(CC2CC2)nc(=O)c(S(=O)(=O)c2ccc(-c3ccc(F)cc3C(N)=O)cc2)c1O", "note": "[Example 473, 4′-({1-[(1S)-1-(3-cyano-5-fluorophenyl)propyl]-2-(cyclopropylmethyl)-6-hydroxy-4-oxo-1,4-dihydropyrimidin-5-yl}sulfonyl)-4-fluoro-[1,1′-biphenyl]-2-carboxamide]", "values": [{"measurement": "EC50", "result": "0.01 to 10", "unit": "nM"}]}, {"smiles": "CC[C@@H](c1cccc(C#N)c1)n1c(CC2CC2)nc(=O)c(S(=O)(=O)c2ccc(-c3ccncc3C#N)cc2)c1O", "note": "[Example 474, 4-[4-({1-[(1S)-1-(3-cyanophenyl)propyl]-2-(cyclopropylmethyl)-6-hydroxy-4-oxo-1,4-dihydropyrimidin-5-yl}sulfonyl)phenyl] pyridine-3-carbonitrile]", "values": [{"measurement": "EC50", "result": "0.01 to 10", "unit": "nM"}]}, {"smiles": "CC[C@@H](c1cc(F)cc(C#N)c1)n1c(CC2CC2)nc(=O)c(S(=O)(=O)c2ccc(-c3ccncc3C)cc2)c1O", "note": "[Example 475, 3-[(1S)-1-[2-(cyclopropylmethyl)-6-hydroxy-5-[4-(3-methylpyridin-4-yl)benzenesulfonyl]-4-oxo-1,4-dihydropyrimidin-1-yl]propyl]-5-fluorobenzonitrile]", "values": [{"measurement": "EC50", "result": "0.01 to 10", "unit": "nM"}]}, {"smiles": "CCCCc1nc(=O)c(S(=O)(=O)c2ccc(-c3ccnc(F)c3C)cc2)c(O)n1[C@H](c1cccc(C#N)c1)C1CC1", "note": "[Example 476, 3-[(S)-{2-butyl-5-[4-(2-fluoro-3-methylpyridin-4-yl)benzenesulfonyl]-6-hydroxy-4-oxo-1,4-dihydropyrimidin-1-yl}(cyclopropyl)methyl] benzonitrile]", "values": [{"measurement": "EC50", "result": "0.01 to 10", "unit": "nM"}]}, {"smiles": "CCCCc1nc(=O)c(S(=O)(=O)c2ccc(-c3ccc(F)cc3C(N)=O)cc2)c(O)n1[C@H](c1cccc(C#N)c1)C1CC1", "note": "[Example 477, 4′-({2-butyl-1-[(S)-(3-cyanophenyl)(cyclopropyl)methyl]-6-hydroxy-4-oxo-1,4-dihydropyrimidin-5-yl}sulfonyl)-4-fluoro-[1,1′-biphenyl]-2-carboxamide]", "values": [{"measurement": "EC50", "result": "0.01 to 10", "unit": "nM"}]}, {"smiles": "C/C=C(/c1cccc(C#N)c1)n1c(CCCC)nc(=O)c(S(=O)(=O)c2ccc(-c3ccncc3C)cc2)c1O", "note": "[Example 478, 3-[(1Z)-1-{2-butyl-6-hydroxy-5-[4-(3-methylpyridin-4-yl)benzenesulfonyl]-4-oxo-1,4-dihydropyrimidin-1-yl}prop-1-en-1-yl]benzonitrile]", "values": [{"measurement": "EC50", "result": "0.01 to 10", "unit": "nM"}]}, {"smiles": "CCCCc1nc(=O)c(S(=O)(=O)c2ccc(-c3ccc(F)nc3C)cc2)c(O)n1[C@H](c1cccc(C#N)c1)C1CC1", "note": "[Example 479, 3-[(S)-{2-butyl-5-[4-(6-fluoro-2-raethylpyridin-3-yl)benzenesulfonyl]-6-hydroxy-4-oxo-1,4-dihydropyrimidin-1-yl}(cyclopropyl)methyl] benzonitrile]", "values": [{"measurement": "EC50", "result": "0.01 to 10", "unit": "nM"}]}, {"smiles": "CCCCc1nc(=O)c(S(=O)(=O)c2ccc(-c3cccn(C)c3=O)cc2)c(O)n1[C@H](c1cccc(C#N)c1)C1CC1", "note": "[Example 480, 3-[(S)-{2-butyl-6-hydroxy-5-[4-(1-methyl-2-oxo-1,2-dihydropyridin-3-yl)benzenesulfonyl]-4-oxo-1,4-dihydropyrimidin-1-yl}(cyclopropyl)methyl] benzonitrile]", "values": [{"measurement": "EC50", "result": "0.01 to 10", "unit": "nM"}]}, {"smiles": "CCCCc1nc(=O)c(S(=O)(=O)c2ccc(-c3ccccc3C(=O)OC)cn2)c(O)n1[C@@H](CC)c1cccc(C#N)c1", "note": "[Example 481, methyl 2-[6-({2-butyl-1-[(1S)-1-(3-cyanophenyl)propyl]-6-hydroxy-4-oxo-1,4-dihydropyrimidin-5-yl}sulfonyl)pyridin-3-yl]benzoate]", "values": [{"measurement": "EC50", "result": "0.01 to 10", "unit": "nM"}]}, {"smiles": "CCCCc1nc(=O)c(S(=O)(=O)c2ccc(-c3ccccc3C)cn2)c(O)n1[C@@H](CC)c1cccc(C#N)c1", "note": "[Example 482, 3-[(1S)-1-(2-butyl-6-hydroxy-5-{[5-(2-methy!phenyl)pyridin-2-yl]sulfonyl}-4-oxo-1,4-dihydropyrimidin-1-yl)propyl]benzonitrile]", "values": [{"measurement": "EC50", "result": "0.01 to 10", "unit": "nM"}]}, {"smiles": "C/C=C(/c1cccc(C#N)c1)n1c(CCCC)nc(=O)c(S(=O)(=O)c2ccc(-c3ccnc(F)c3C)cc2)c1O", "note": "[Example 483, 3-[(1Z)-1-{2-butyl-5-[4-(2-fluoro-3-methylpyridin-4-yl)benzenesulfonyl]-6-hydroxy-4-oxo-1,4-dihydropyrimidin-1-yl}prop-1-en-1-yl]benzonitrile]", "values": [{"measurement": "EC50", "result": "0.01 to 10", "unit": "nM"}]}, {"smiles": "CCCCc1nc(=O)c(S(=O)(=O)c2ccc(-c3cccnc3C)cc2)c(O)n1[C@H](c1cccc(C#N)c1)C1CC1", "note": "[Example 484, 3-[(S)-{2-butyl-6-hydroxy-5-[4-(2-methyipyridin-3-yl)benzenesulfonyl]-4-oxo-1,4-dihydropyrimidin-1-yl}(cyclopropyl)methyl] benzonitrile]", "values": [{"measurement": "EC50", "result": "0.01 to 10", "unit": "nM"}]}, {"smiles": "CCCCc1nc(=O)c(S(=O)(=O)c2ccc(-c3cccn(C)c3=O)cn2)c(O)n1[C@@H](CC)c1cccc(C#N)c1", "note": "[Example 485, 3-[(1S)-1-[2-butyl-6-hydroxy-5-({1′-methyl-2′-oxo-1′,2′-dihydro-[3,3′-bipyridine]-6-yl}sulfonyl)-4-oxo-1,4-dihydropyrimidin-1-yl]propyl]benzonitrile]", "values": [{"measurement": "EC50", "result": "0.01 to 10", "unit": "nM"}]}, {"smiles": "CC[C@@H](c1cccc(C#N)c1)n1c(CC2CC2)nc(=O)c(S(=O)(=O)c2ccc(-c3cccnc3C(N)=O)cc2)c1O", "note": "[Example 486, 3-[4-({1-[(1S)-1-(3-cyanophenyl)propyl]-2-(cyclopropylmethyl)-6-hydroxy-4-oxo-1,4-dihydropyrimidin-5-yl}sulfonyl)phenyl] pyridine-2-carboxamide]", "values": [{"measurement": "EC50", "result": "0.01 to 10", "unit": "nM"}]}]}
